Measurements reported in patent US7262151B2, “Methods and compositions for production of lipo-chito oligosaccharides by rhizobacteria” (McGill University, priority 2001, dated 2007).
Read-outs that look alike come from different tables or passages of the source.

Experiments:
Format in all cases: cell-based
[1] = test system: nod genes in Bradyrhizobium japonicum strain USDA31; test: nod gene induction, β-galactosidase assay, strain USDA31 (GG1)
Procedure: (§1) Bacteria were grown in yeast extract mannitol (YEM) medium (mannitol 10.0 g, K2HPO4 0.5 g, MgSO4.7H2O 0.2 g, NaCl 0.1 g, and yeast extract 0.4 g dissolved in 1000 mL of dd H2O). In order to ensure the maintenance of the strains, tetracycline was added to the bacterial cultures at a concentration of 20 mg 1^−1. One hundred mL cultures of each strain, in 250 mL flasks, were shaken at 150 rev min^−1 at 30° C. for 3-5 days and then subcultured into 400 mL of fresh medium in 1000 mL flasks. The cultures were incubated until the OD620 reached 0.2-0.3. The cultures were then divided into 5 mL tubes (sterilized).
(§2) Stock solutions of various inducers: genistein, salicylic acid and acetylsalicylic acid made in methanol and linolenic, linoleic, and jasmonic acid and methyl jasmonate were made in ethanol, and an appropriate amount of these inducers was added into the tubes before addition of bacterial culture. In the tubes, the final concentration of all the inducers was maintained as 5, 10, 25, 50 and 100 μM. Tubes were collected after 18 h of incubation and stored at −20° C. until the β-galactosidase activity was measured. Genistein (4′,5,7, trihydroxyisoflavone, purity 98%,), linolenic acid (9,12,15-Octadecatrienoic acid, purity 99%), linoleic acid (cis-9, cis-12-Octadecadienoic acid, purity 99%), jasmonic acid (±Jasmonic acid, C12H18O3) and salicylic acid (2-hydroxybenzoic acid, purity 99.0%) were obtained from Sigma, while acetylsalicylic acid (C9H8O4, 99% purity) was obtained from Acros and methyl jasmonate (95% purity) was obtained from Aldrich Chemical Company, Inc.
(§3) β-galactosidase is an enzyme which hydrolyzes β-D-galactosides. The activity of this enzyme can easily be measured with colorless substrates, which upon hydrolysis produce colored products. O-nitrophenyl-β-galactoside (ONPG) is a colorless compound and is converted to galactose and O-nitrophenol in the presence of β-galactosidase. The O-nitrophenol is yellow and can be measured by its absorption at 420 nm. In the present study, nod gene expression was indirectly measured by β-galactosidase activity following the method of Miller (1972) as modified by Stachel et al, (1985). Briefly, 0.5 mL culture was mixed with 2×Z buffer (Na2HPO4.7H2O, 16.1 g, NaH2PO4.H2O, 5.5 g, KCl 0.75 g, MgSO4.7H2O 0.246 g, β-mercaptoethanol 2.7 g, pH 7.0 dissolved in 500 mL water) and 40 μL toluene and vortexed for 10 seconds. The culture was then incubated in a water bath at 37° C. for 30 minutes and then 0.2 mL of O-nitrophenyl β-D-galactopyranoside (ONPG) was added at a concentration of 4 mg mL^−1. The cultures were incubated again in the water bath until the color of the culture changed. The reaction time was recorded and the reaction was stopped with 1M Na2CO3. After centrifugation at 10,000 rpm for 4 minutes, spectrophotometric reading at OD420 and OD600 were taken and the β-galactosidase activity was measured (β-galactosidase activity=OD420*1000/OD600*T*V, where T is the reaction time and V is the volume of the bacterial culture used for enzyme assay).
(§4) The effect of 0-100 μM concentrations of each of acetylsalicylic acid, salicylic acid, jasmonic acid, methyl jasmonate, and genistein, on induction of nod gene expression in Bradyrhizobium japonicum strains USDA31, USDA76, USDA121, and USDA3, was evaluated in accordance with the β-galactosidase assay of Experiment 1 in Example 1 above.

[2] = test system: nod genes in Bradyrhizobium japonicum strain USDA76; test: nod gene induction, β-galactosidase assay, strain USDA 76 (GG2); settings: control 411.8 ± 26.8
Procedure: as §1, §2, §3, §4

[3] = test system: nod genes in Bradyrhizobium japonicum strain USDA121; test: nod gene induction, β-galactosidase assay, strain USDA121 (GG3); settings: control 476.8 ± 86.6
Procedure: as §1, §2, §3, §4

[4] = test system: nod genes in Bradyrhizobium japonicum strain USDA3; settings: for inhibitory or inducing activity in combinations (β-galactosidase assay): 25 and 50 μM with JA, MeJA and genistein (5 μM), FIGS. 3, 4, and 5; for nod gene induction (β-galactosidase activity): USDA3 (GG4), control 362 ± 25; for induction of nod genes (β-galactosidase activity vs control without inducer), in words: all concentrations, FIG. 1; for expression of nod genes (β-galactosidase assay), in words: 5-100 μM tested, FIG. 6; for nod gene induction at optimum concentration compared with optimum JA and MeJA concentrations / optimum concentration for nod gene induction: USDA3, β-galactosidase assay
Procedure: Bradyrhizobium japonicum strain USDA3, harboring plasmid GG4, was used in the experiment. Plasmid GG4 contains a translational fusion between B. japonicum nod Y open-reading frame and lac Z of Escherichia coli.
as §1, §2, §3
The experiment was designed in a randomized complete block design (RCBD) with three replicates. […] Data are shown from the second experiment. Statistical analysis of the data was done with analysis of variance using the Statistical Analysis System computer package (SAS Institute, 1988). Comparisons among treatment means were made with an ANOVA protected LSD at the 0.05 level of statistical significance.

[5] = 5 μM, control without inducer 522.6 ± 15.9

Row | Structure (SMILES) | nod gene induction (β-galactosidase activity) [1, 5] | nod gene induction (β-galactosidase activity) ([1]; 10 μM, control 522.6 ± 15.9) | nod gene induction (β-galactosidase activity) ([1]; 25 μM, control 522.6 ± 15.9) | nod gene induction (β-galactosidase activity) ([1]; 50 μM, control 522.6 ± 15.9) | nod gene induction (β-galactosidase activity) ([1]; 100 μM, control 522.6 ± 15.9) | nod gene induction (β-galactosidase activity) ([2]; 5 μM) | nod gene induction (β-galactosidase activity) ([2]; 10 μM) | nod gene induction (β-galactosidase activity) ([2]; 25 μM) | nod gene induction (β-galactosidase activity) ([2]; 50 μM) | nod gene induction (β-galactosidase activity) ([2]; 100 μM) | nod gene induction (β-galactosidase activity) ([3]; 5 μM) | nod gene induction (β-galactosidase activity) ([3]; 10 μM) | nod gene induction (β-galactosidase activity) ([3]; 25 μM) | nod gene induction (β-galactosidase activity) ([3]; 50 μM) | nod gene induction (β-galactosidase activity) ([3]; 100 μM) | inhibitory or inducing activity in combinations (β-galactosidase assay) [4] | nod gene induction (β-galactosidase activity) ([4]; 5 μM) | nod gene induction (β-galactosidase activity) ([4]; 10 μM) | nod gene induction (β-galactosidase activity) ([4]; 25 μM) | nod gene induction (β-galactosidase activity) ([4]; 50 μM) | also measured
1 | CC(=O)Oc1ccccc1C(=O)O [ASA, acetylsalicylic acid] | 636.5 ± 66.9 | 563.3 ± 37.9 | 719.5 ± 75.2 | 676.6 ± 85.8 | 384.8 ± 34.4 | 363.2 ± 34.1 | 341 ± 21.1 | 418.8 ± 59.5 | 376.2 ± 37.2 | 413.1 ± 85.5 | 422.6 ± 64.9 | 425 ± 39.4 | 479.9 ± 88.6 | 445.4 ± 99 | 325.6 ± 58.8 | did not show inhibitory or inducing activity | 396 ± 14.7 | 372 ± 16 | 382 ± 16 | 464 ± 7 | nod gene induction (β-galactosidase activity) ([4]; 100 μM): 527 ± 36; induction of nod genes (β-galactosidase activity vs control without inducer), in words [4]: did not show any activity
2 | CCCCC/C=C\C/C=C\CCCCCCCC(=O)O [linoleic acid, (Z,Z)-9,12-Octadecadienoic acid] | – | – | – | – | – | – | – | – | – | – | – | – | – | – | – | – | – | – | – | – | expression of nod genes (β-galactosidase assay), in words [4]: induced the expression of nod genes; nod gene induction at optimum concentration compared with optimum JA and MeJA concentrations [4]: lower; optimum concentration for nod gene induction [4]: 50 µM
3 | O=C(O)c1ccccc1O [SA, 2-hydroxybenzoic acid] | 587 ± 66.6 | 536.4 ± 40.1 | 522.4 ± 65.3 | 476.1 ± 28.4 | 519.3 ± 43.5 | 562.2 ± 26.6 | 411.8 ± 75.3 | 473 ± 58.3 | 464.6 ± 36.2 | 430.7 ± 55.3 | 404.1 ± 62.5 | 472.7 ± 54.3 | 435.8 ± 69.2 | 434.2 ± 26.3 | 369.8 ± 114.9 | did not show inhibitory or inducing activity | 398 ± 13 | 402 ± 33 | 414 ± 17 | 435 ± 26 | nod gene induction (β-galactosidase activity) ([4]; 100 μM): 515 ± 583; induction of nod genes (β-galactosidase activity vs control without inducer), in words [4]: did not show any activity
4 | CC/C=C\C/C=C\C/C=C\CCCCCCCC(=O)O [linolenic acid, (Z,Z,Z)-9,12,15-Octadecatrienoic acid] | – | – | – | – | – | – | – | – | – | – | – | – | – | – | – | – | – | – | – | – | expression of nod genes (β-galactosidase assay), in words [4]: induced the expression of nod genes; nod gene induction at optimum concentration compared with optimum JA and MeJA concentrations [4]: lower; optimum concentration for nod gene induction [4]: 50 µM
